Test results: patent US12241902B2, “Probes for detection of copper” (The Regents of the University of California, priority 2019, dated 2025)

What was measured:
[1] = tested on: labile Cu(I) pools in HEK 293T cells; test: Ratiometric confocal fluorescence imaging of labile Cu(I) in HEK 293T cells; assay type: cell-based, Human
Protocol: (A) Confocal fluorescence microscopy images of HEK 293T cells pretreated with solvent vehicle control or varying concentrations of CuCl2 in complete medium for 18 h. The cells were then washed with PBS, incubated with FCP-1 (5 μM) in DPBS for 45 min and then imaged. (B) Average cellular ratiometric emission ratios, represented by Fgreen/Forange, as determined from imaging experiments in (A) performed in triplicate. (C) Confocal fluorescence microscopy images of HEK 293T cells pretreated with solvent vehicle control or BCS (100 μM) in complete medium for 18 h. The cells were then washed with PBS, incubated with FCP-1 (5 μM) in DPBS for 45 min and then imaged. (D) Average cellular ratiometric emission ratios of FCP-1, Fgreen/Forange, as determined from experiments in (C) performed in triplicate. […] (E) ICP-MS measurement to determine total cellular ^63Cu levels in HEK293T cells under copper supplementation and depletion relative to the control (with normalization of different cell numbers by total cellular ^31P level). Error bars denote standard derivation (SD; n=3). *p<0.05, **p<0.01, ***p<0.001, ****p<0.0001 and *****p<0.00001.
Cell culture. Following cell cultures were grown: Human embryonic kidney (HEK 293T) cells were maintained in Dulbecco's Modified Eagle Medium (DMEM) supplemented with 10 vol % fetal bovine serum (FBS), 1 vol % GlutaMax (Gibco) and 1 vol % non-essential amino acids (NEAA, Gibco). Ctrl1^+/+ and Ctr1^−/− MEF cells were maintained in DMEM with 10 vol % FBS, 1 vol % non-essential amino acids, 1 vol % sodium pyruvate and 0.1 vol % 2-mercaptoethanol or DMEM supplemented with 10 vol % FBS and 1× Penicillin-Streptomycin. Human cervical epithelial carcinoma (HeLa) was maintained in DMEM medium supplemented with 1 vol % GlutaMAX and 10 vol % FBS. […]
(§1) Confocal fluorescence microscopy imaging. For confocal fluorescence imaging experiments of HEK293T, MEF Ctr1^+/+ and Ctr1^−/− and HeLa cells, the cells were plated on 8-well Lab Tek borosilicate chambered coverglass slides (Nunc), and allowed to grow to ca. 60% confluency before performing the cell imaging experiments. […] For quantification, a threshold value was set as background and the average intensity of the whole image was measured by ImageJ. […]
Given the metal and oxidation state-selective and sensitive response of FCP-1 to Cu(I), this probe was examined for ratiometric fluorescence imaging of labile Cu(I) pools in living cells. […] The observed increases and decreases in labile Cu(I) levels upon copper supplementation (CuCl2) and copper depletion (BCS) treatments, respectively, as measured by FCP-1 imaging were supported by complementary ICP-MS measurements of total copper levels showing expected increases and decreases in the total copper pool (FIG. 9, panel C).

[2] = tested on: labile Cu(I) pools in HeLa cells; test: Ratiometric confocal fluorescence imaging of labile Cu(I) in HeLa cells under redox stress; assay type: cell-based, Human; conditions: FCP-1 5 μM
Protocol: Confocal fluorescence microscopy images of HeLa cells pretreated with (A) solvent control, CuCl2 (200 or 300 μM), or BCS (100 μM) in complete medium for 18 h, or (B) solvent control, ascorbate (1 mM), or BSO (1 mM) in complete medium for 4 h. The cells were then washed with PBS, incubated with FCP-1 (5 μM) in DPBS for 45 min and imaged with λex=458 nm. The bar charts show average cellular ratiometric FCP-1 emission, Fgreen/Forange, determined from experiments performed in triplicate. (C) Total cellular ^63Cu levels were determined by ICP-MS experiments (with normalization of different cell numbers by total cellular ^31P level). […]
as §1
In view of the oxidation state-specificity of FCP-1 toward Cu(I), the impact of cellular redox status on labile Cu(I) pools was examined First, the ability of FCP-1 to detect changes in labile Cu(I) levels in HeLa cells with CuCl2 and BCS treatments was evaluated (FIG. 16A). […]

CC[N+](CC)=c1ccc2c(-c3ccccc3C(=O)O)c3ccc(N4CCN(Cc5cccc(CN(Cc6ccccn6)Cc6cccc(COc7ccc8c(-c9ccccc9C(=O)OC)c9ccc(=O)cc-9oc8c7)n6)n5)CC4)cc3oc-2c1 [FCP-1]
Fgreen/Forange ratio in copper-deficient cells compared to control ([1]; BCS 100 μM pretreatment, FCP-1 5 μM): statistically significant decrease | Fgreen/Forange ratio in copper-supplemented cells over vehicle control ([1]; CuCl2 25-300 μM pretreatment, FCP-1 5 μM 45 min): statistically significant, dose-dependent increase | cell viability by nuclear staining ([1]; FCP-1 5 μM, DRAQ-5 (FIGS. 10-11)): remained viable | Fgreen/Forange ratio in BSO-treated cells compared to control ([2]; BSO 1 mM 4 h): higher | Fgreen/Forange ratio in ascorbate-treated cells compared to control ([2]; ascorbate 1 mM 4 h): statistically significant increase
